Molecular target: T1, Interleukin-1 receptor-associated kinase 4 (Homo sapiens, UniProt Q9NWZ3)
T1 sequence (Q9NWZ3 whole entry): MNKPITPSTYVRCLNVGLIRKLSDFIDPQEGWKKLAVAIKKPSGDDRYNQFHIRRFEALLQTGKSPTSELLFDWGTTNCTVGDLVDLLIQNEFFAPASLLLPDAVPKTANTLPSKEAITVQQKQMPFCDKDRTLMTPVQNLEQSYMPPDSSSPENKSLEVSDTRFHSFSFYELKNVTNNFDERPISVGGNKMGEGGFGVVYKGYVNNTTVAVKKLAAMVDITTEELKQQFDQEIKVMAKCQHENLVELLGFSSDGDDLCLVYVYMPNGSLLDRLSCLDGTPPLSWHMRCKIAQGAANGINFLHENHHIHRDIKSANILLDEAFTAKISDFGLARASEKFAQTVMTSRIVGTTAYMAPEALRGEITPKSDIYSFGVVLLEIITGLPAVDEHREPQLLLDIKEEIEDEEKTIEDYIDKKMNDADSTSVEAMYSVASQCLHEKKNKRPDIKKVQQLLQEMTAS
Test: IRAK4 Kinase Inhibition Assay
Procedure: In this assay, Cisbio HTRF KinEASE-STK SI kit (62S 1 PEB) was used, in which assay/detection buffer, STK Substrate 1-biotin, Streptavidin-XL665, STK Antibody-Cryptate were contained. After adding compound/DMSO to a 384-well plate (PerkinElmer 6008280) using Echo 665, 5 μL of 2-fold reaction concentration of IRAK4 kinase protein (final concentration: 10 nM) dissolved with assay buffer [1 volume of 5× kinase buffer+20 mM magnesium chloride (Sigma) solution+1 mM DTT (Alfa Aesar) solution+4 volumes deionized water] was added, followed by sealing the shallow well plate, shaking and then centrifuging at 1000 rpm for 1 min, and incubating at room temperature for 5 min; then 5 μL of 2-fold reaction concentration of a 1:1 mixture of STK Substrate 1-biotin (final concentration: 1 μM) and ATP (Sigma A1852) (final concentration: 200 μM) formulated with assay buffer was added, followed by sealing the shallow well plate, shaking and then centrifuging at 1000 rpm for 1 min, and incubating at 37° C. for 2 h, and then 10 μL of a 1:1 mixture of Streptavidin-XL665 (final concentration: 62.5 nM) and STK-antibody-cryptate dissolved with detection buffer was added, followed by sealing the shallow well plate, shaking and then centrifuging at 1000 rpm for 1 min, and incubating at room temperature for 1 h, and thereafter reading the value at the wavelength of 620 nm/665 nm using a microplate reader.

OCC1CCC(n2cc(-n3cc(-c4cnn5ccc(C6CCOC6)nc45)nn3)c(C(F)F)n2)CC1 (stereo unspecified) [US20260028337, Compound 98A]
IC50: < 100 nM

— BindingDB's records for patent US20260028337 (Shenzhen Zhongge Biological Technology, 2026)
